Patent US7122666B2, “Heteroaryl-substituted pyrrole derivatives, their preparation and their therapeutic uses” (Sankyo Company, Limited, priority 1999, dated 2006)
pIC50: −log10 of the molar value.

How the values were obtained:
[1] = system: TNFα production in human whole blood; test: Inhibition of the production of TNFα in vitro in human whole blood (Test Examples 1 and 1′); assay type: cell-based; conditions: Table 7′, lipopolysaccharide 10 μg/ml, 6 hours at 37° C., plasma TNFα by ELISA, least squares, read-out: Inhibitory Effect on TNFα Production (in vitro) IC50
Experimental: (§1) Inhibition of the Production of the Cytokines IL-1β and TNFα in Vitro in Human Whole Blood
(§2) This test was performed according to the method of Hartman, et al. [D. A. Hartman, S. J. Ochalski and R. P. Carlson; The effects of anti-inflammatory and antiallergic drugs on cytokine release after stimulation of human whole blood by lipopolysaccharide and zymosan A: Inflamm. Res., 44, 269 (1995)].
(§3) Peripheral blood samples were collected in the presence of heparin from healthy adult volunteers. 1000 μl of whole blood were added to an Eppendorf tube to which 2 μl of a dimethyl sulfoxide solution of the test compound had been added in advance, after which 10 μl of lipopolysaccharide (E. coli 026: B6 origin, Difco) were added as a stimulant (final concentration of said lipopolysaccharide: 10 μg/ml). This was mixed well and then incubated for 6 hours at 37° C. in the presence of 5% CO2. At the end of the incubation, the mixture was cooled to 4° C. to stop the reaction, followed immediately by centrifuging for 5 minutes at 14,000 rpm to separate and collect the supernatant plasma. The IL-1β and TNFα produced and released into the plasma were measured using a commercially available enzyme immunoassay (ELISA) kit [Cayman (IL-1β) and Genzyme (TNFα)]. The procedure was also repeated in the absence of test compound. The inhibitory effect [IC50 (μM)] on the production of IL-1β and TNFα was determined from the amounts of the cytokines produced in the presence and absence of the test compound.
(§4) Inhibition of the Production of the Cytokines IL-1β and TNFα In Vitro in Human Whole Blood
as §3, with “O26:” for “026:”, “plasma” for “plasma.”, “kits” for “kit”, “determined by the method of least squares” for “determined”

[2] = system: IL-1β production in human whole blood; test: Inhibition of the production of IL-1β in vitro in human whole blood (Test Examples 1 and 1′); assay type: cell-based; conditions: Table 8′, lipopolysaccharide 10 μg/ml, 6 hours at 37° C., plasma IL-1β by ELISA, least squares, read-out: Inhibitory Effect on IL-1β Production (in vitro) IC50
Experimental: as §1, §2, §3, §4
as §3, with “O26:” for “026:”, “plasma” for “plasma.”, “kits” for “kit”, “determined by the method of least squares” for “determined”

[3] = system: adjuvant-induced arthritis; test: Activity in preventing the development of adjuvant-induced arthritis in vivo (Test Examples 4 and 4′); conditions: Table 10′; Lewis rat, oral once a day from day 0 to day 20, inhibition of swelling of injected foot on day 21
Experimental: The test was performed according to the method described by Winder et al. (Arthritis Rheum., 12, 472–482, 1969). Heat-killed dried Mycobacterium butyricum (Difco Laboratories, Lot 679123) was ground on an agate mortar, and was then suspended in dry-sterilised liquid paraffin (first grade, Wako Pure Chemical Industries, Ltd.) to make a 2 ml suspension. The resulting suspension was then sonicated and used as an adjuvant. Arthritis was induced by the intradermal injection of the adjuvant (100 μg of heat killed dried bacterium/0.05 ml of paraffin/paw) into the heel of the right hind paw of a Lewis rat (male, age 8 weeks, Japan Charles River). […] The volumes of the swollen feet (adjuvant-injected right hind foot volume—non-injected left hind foot volume) were calculated. The percent inhibition of swelling of the injected foot of the treated animals as compared to that of the control animals on day 21 was calculated as follows. […] ID50 values were calculated using this curve. […] […]

**Q.** How did the pIC50 [1] turn out when `CC1C[C@H]2C=C(c3c[nH]c(-c4ccc(F)cc4)c3-c3ccncc3)CCN2C1` (stereo partly drawn) [Example 16′, 2-(4-Fluorophenyl)-4-[(8aS)-2-methyl-1,2,3,5,6,8a-hexahydroindolizin-7-yl]-3-(pyridin-4-yl)1H-pyrrole] was run?
**A.** 8.66

**Q.** And the pIC50 [2]?
**A.** 8.77

**Q.** And the “Activity in Preventing the Development of Adjuvant-Induced Arthritis in vivo IC50” value [3]?
**A.** 1.2 mg/kg
